Measurements taken from PubChem BioAssay (NCI).
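All cell lines were grown in 96-well plates and treated with compound for 48 hours. Here, GI50 denotes the concentration required for 50% inhibition of growth. TGI marks complete inhibition of growth.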

How the values were obtained:
Assay in all cases: growth of human tumour cells (NCI), 48 h
[1] = system: HOP-62 NSCLC
[2] = system: SK-MEL-28 melanoma
[3] = system: OVCAR-5 ovarian
[4] = system: IGROV1 ovarian
[5] = system: OVCAR-3 ovarian
[6] = system: SN12C renal
[7] = system: SF-268 CNS
[8] = system: KM20L2 colon
[9] = system: NCI-H23 lung
[10] = system: OVCAR-4 ovarian

Compound	TGI [1] [µM]	TGI [2] [µM]	TGI [3] [µM]	TGI [4] [µM]	TGI [5] [µM]	TGI [6] [µM]	TGI [7] [µM]	TGI [8] [µM]	TGI [9] [µM]	TGI [10] [µM]	GI50 [1] [µM]	GI50 [2] [µM]	GI50 [3] [µM]	GI50 [4] [µM]	GI50 [5] [µM]	GI50 [6] [µM]	GI50 [7] [µM]	GI50 [9] [µM]	GI50 [10] [µM]
Cc1c(Cl)ccc2c1NC(=O)C2(O)C1Cc2ccccc2C1=O (centres undefined)	> 100	> 100	> 100	> 100	> 100	> 100	> 100	> 100	> 100	> 100	–	–	–	–	–	–	–	–	–
C=CCN(N=O)C(=O)N(CCC)CCCCC(NC(C)=O)C(=O)NCc1ccccc1 (centres undefined)	> 100	> 100	> 100	> 100	> 100	> 100	> 100	> 100	> 100	> 100	–	–	–	–	–	–	–	–	–
CSC(=S)NNC(=O)c1ccncc1	70.2	44	48.7	32.7	51.3	41.4	63.3	> 100	33.2	–	–	–	–	–	–	–	–	–	–
CN=S(=O)(C[C@]1(O)CC2OC1C1OC(C)(C)OC21)c1ccccc1 (some centres undefined)	> 100	> 100	> 100	> 100	> 100	> 100	> 100	> 100	> 100	> 100	–	–	–	–	–	–	–	–	–
O=C(CC(=O)C(F)(F)F)c1csc2ccccc12	81.1	> 100	> 100	> 100	> 100	75.4	> 100	> 100	> 100	–	–	–	–	–	–	–	–	–	–
COc1ccc2c(c1)[n+]([O-])c(-c1nc3ccccc3s1)c(N)[n+]2[O-]	> 100	> 100	> 100	> 100	> 100	> 100	–	> 100	> 100	> 100	–	–	–	–	–	–	–	–	–
O=C1c2ccccc2C(=O)c2nc(-c3ccccc3)c(-c3ccccc3)nc21	> 100	> 100	> 100	–	13.2	> 100	> 100	> 100	> 100	> 66.9	–	–	–	–	–	–	–	–	–
CCOC(=O)C1=C(C)N(NC(=O)c2ccccc2)C2(O)CCCC12C(=O)OCC (centres undefined)	> 100	> 100	> 100	> 100	> 100	> 100	> 100	> 100	–	> 100	–	–	–	–	–	–	–	–	–
O=C(C=Nc1ccccc1C(=O)[O-])c1cccs1.O=C(C=Nc1ccccc1C(=O)[O-])c1cccs1.[Cu+2]	> 100	> 100	> 100	> 100	> 100	> 100	> 100	> 100	> 100	–	–	–	–	–	–	–	–	–	–
Cc1c(CCl)c(=O)oc2c(C)c3occ(CCl)c(=O)c3cc12	> 100	35.4	> 100	40.9	> 100	56.4	71.7	> 100	83.7	–	–	–	–	–	–	–	–	–	–
CCCCCCCCCC(=O)OCC1OC(n2cc(F)c(=O)[nH]c2=O)C(N)C(OC(=O)CCCCCCCCC)C1O (centres undefined)	> 100	30.4	–	> 100	32.7	32.2	40.2	34.8	36	31	–	–	–	–	–	–	–	–	–
CNC(=O)CN(CC(N)=O)C(=O)NC	> 100	> 100	> 100	> 100	> 100	–	> 100	> 100	> 100	> 100	–	–	–	–	–	–	–	–	–
CC(=O)Nc1ccc(/C=C/C(=O)c2sc(C(N)=S)nc2C)cc1	> 100	> 100	> 100	> 100	> 100	> 100	> 100	> 100	> 100	–	–	–	–	–	–	–	–	–	–
CN1CCN(Cc2ccc(NC(=O)c3cncc(C#Cc4c(N)ncc5cc(F)ccc45)c3)cc2C(F)(F)F)CC1	12	1.43	3.55	3.02	4.98	3.84	1.9	–	4.65	1.38	2.4	0.729	1.06	0.813	2.43	1.39	0.884	1.36	0.489
O=C1/C(=C/c2ccc(Cl)cc2)CN(C(=O)C(Cl)Cl)C/C1=C\c1ccc(Cl)cc1	0.94	0.517	0.799	0.422	0.407	0.541	1.48	–	0.887	1.32	0.288	0.227	0.287	0.178	0.151	0.203	0.315	0.242	0.283
CCCC(=O)NNc1[nH]c(-c2ccc(OC)cc2)cc1C(=O)OCC	> 100	25.6	44.4	39.5	31.1	30.9	31	–	38	32.3	> 100	12.7	23.7	21.2	15.5	17.1	14.6	14.9	17.1
Cc1ccc(NC(=O)c2ccnc(N3CCCC3)c2)cc1-c1ccc(C(=O)NCC2CC2)cc1	> 25	> 25	> 25	> 25	> 25	> 25	> 25	–	> 25	> 25	> 25	> 25	> 25	> 25	> 25	> 25	> 25	> 25	> 25

Compound	TGI [1] [µM]	TGI [2] [µM]	TGI [3] [µM]	TGI [4] [µM]	TGI [5] [µM]	TGI [6] [µM]	TGI [7] [µM]	TGI [8] [µM]	TGI [9] [µM]	TGI [10] [µM]	GI50 [1] [µM]	GI50 [2] [µM]	GI50 [3] [µM]	GI50 [4] [µM]	GI50 [5] [µM]	GI50 [6] [µM]	GI50 [7] [µM]	GI50 [9] [µM]	GI50 [10] [µM]
Cc1ccc(S(=O)(=O)N/N=C(\C(=O)Nc2cccc([N+](=O)[O-])c2)c2nc3ccc([N+](=O)[O-])cc3[nH]c2=O)cc1	> 100	> 100	> 100	> 100	> 100	> 100	> 100	–	> 100	> 100	–	–	–	–	–	–	–	–	–
COc1cc(C(=O)n2nc(N3CCN(C)CC3)c3cc(N)ccc32)cc(OC)c1OC	> 100	99.4	> 100	> 100	5.62	> 100	88.9	–	> 100	> 100	5.56	14	8.18	4.88	2.39	4.42	4.19	4.15	4.17
CC/C(=C(\CC)c1ccc(OCCN(CC)CC)cc1)c1ccc(OCCN(CC)CC)cc1	4.76	3.37	17.7	22.1	16.1	21.3	18.3	–	21.8	12.3	1.73	1.67	3.96	3.3	3.45	5.32	5.43	5.77	3.13
Cn1cc(C2=C(c3c4n(c5ccccc35)CCC(CN)CC4)C(=O)NC2=O)c2ccccc21 (centres undefined)	8.22	8.06	9.14	8.75	8.75	8.14	7.7	–	10.9	7.51	3.93	4.17	3.51	3.98	4.31	3.87	4.02	5.05	1.96
CC(C)=CCC/C(C)=C/CC/C(=C/COP(=O)(OCc1ccc([N+](=O)[O-])o1)N(C)CCCCCl)C(C)(C)C (centres undefined)	3.86	37.5	32.8	22.5	3.66	7.27	19.3	–	34.2	33.1	1.83	17.1	16.2	6.29	1.94	2.6	3.69	12.6	11.8
COc1cc(-c2nc3ccccc3s2)ccc1OCc1nc2n(n1)S(=O)(=O)c1ccccc1N2C	> 100	> 100	> 100	> 100	> 100	> 100	> 100	–	> 100	> 100	> 100	> 100	> 100	> 100	62.4	> 100	> 100	> 100	> 100
COC(=O)C1=CC2OC13CC1CCC3(C2=O)C1(C)C (centres undefined)	48.1	–	33.2	39.9	20	26.4	23.2	27.1	32.1	23.3	–	–	–	–	–	–	–	–	–
O=C(O)CC1(C(=O)O)CCCCC1	> 100	> 100	> 100	> 100	> 100	> 100	> 100	–	> 100	> 100	–	–	–	–	–	–	–	–	–
COc1ccc(F)cc1C(=O)c1cnc(NC2CCN(S(C)(=O)=O)CC2)nc1N	> 20.6	> 16.4	> 14.7	> 13.6	14.6	> 25	18.1	–	16.7	> 21.4	5.42	3.38	1.4	1.84	4.15	4.92	4.58	2.97	5.7
COC(=O)C1=CC2OC1(C)C1(CC1)C2=O (centres undefined)	> 100	–	57.4	35.9	31.2	31	43.3	36.6	49.7	24	–	–	–	–	–	–	–	–	–
Cn1c2cccc3nnc4cccc(c4c32)n1C	–	> 100	> 100	> 100	> 100	> 100	> 100	> 100	–	> 100	–	–	–	–	–	–	–	–	–
CO[C@H](C(=O)N[C@@H](CCCCNC(=O)OCc1ccccc1)C(=O)OC(C)(C)C)[C@@H]1Cc2cc3cc(OC4CC(OC5CC(O)C(O)C(C)O5)C(O)C(C)O4)c(C)c(O)c3c(O)c2C(=O)[C@H]1OC1CC(OC2CC(OC3CC(C)(O)C(O)C(C)O3)C(O)C(C)O2)C(O)C(C)O1 (some centres undefined)	2.73	1.87	2.82	> 10	> 10	3.88	2.03	–	2.37	> 10	0.464	0.468	0.976	0.449	1.39	0.463	0.624	0.667	3
CN(C)CC1CCn2c(c(C3=C(c4cn(C)c5ccccc45)C(=O)NC3=O)c3ccccc32)C1 (centres undefined)	8.91	8.74	12.8	10.1	8.15	8.11	7.97	–	11.3	9.3	4.55	4.59	4.61	5.22	3.91	3.89	3.84	4.71	4.32
COc1cc(-c2c(C)c(C)nc(OC)c2C#N)cc(OC)c1OC	> 100	> 100	–	> 100	> 100	> 100	> 100	> 100	> 100	> 100	–	–	–	–	–	–	–	–	–
O=C(Nc1ccc(Br)c(Cl)c1)c1cc(F)ccc1O	> 13.2	3.87	> 50	> 50	> 50	8.91	> 33.6	–	3.17	> 50	0.893	0.421	1.71	0.682	0.481	0.533	0.996	0.36	0.974
C[C@]12CCC(=O)C=C1CC[C@@H]1[C@@H]2CC[C@]2(C)C(=O)/C(=C/c3cccc(OCCN4CCOCC4)c3)C[C@@H]12	29	29.8	34	95.9	16	63.6	76.6	–	20.6	> 100	12.6	11.9	13.4	23.5	3.91	16.7	13.6	3.79	3.01
COC(=O)C#Cc1ccc([N+](=O)[O-])cc1	6.87	4.13	4.34	3.92	2.93	3.22	14	–	3.68	3.5	–	–	–	–	–	–	–	–	–
